Experiments:
[1] = molecular target: Glycogen synthase kinase-3 beta (Homo sapiens, UniProt P49841); assay: Selectivity interaction (Millipore kinase profiler) EUB0000124b GSK3B; details: at 10 µM
[2] = molecular target: Tyrosine-protein kinase HCK (Homo sapiens) (UniProt P08631); assay: Selectivity interaction (Kinase screening (Nanosyn)) EUB0000604a HCK
[3] = molecular target: Phosphatidylinositol 4-kinase beta (Homo sapiens, UniProt Q9UBF8); assay: Selectivity interaction (KinomeScan (DiscoverX)) EUB0001049a PI4KB; details: at 1 µM
[4] = molecular target: Epidermal growth factor receptor (Homo sapiens, UniProt P00533); assay: Selectivity interaction (Kinase panel (Invitrogen)) EUB0000639a EGFR; details: at 200 nM
Chain of Epidermal growth factor receptor (P00533 whole entry): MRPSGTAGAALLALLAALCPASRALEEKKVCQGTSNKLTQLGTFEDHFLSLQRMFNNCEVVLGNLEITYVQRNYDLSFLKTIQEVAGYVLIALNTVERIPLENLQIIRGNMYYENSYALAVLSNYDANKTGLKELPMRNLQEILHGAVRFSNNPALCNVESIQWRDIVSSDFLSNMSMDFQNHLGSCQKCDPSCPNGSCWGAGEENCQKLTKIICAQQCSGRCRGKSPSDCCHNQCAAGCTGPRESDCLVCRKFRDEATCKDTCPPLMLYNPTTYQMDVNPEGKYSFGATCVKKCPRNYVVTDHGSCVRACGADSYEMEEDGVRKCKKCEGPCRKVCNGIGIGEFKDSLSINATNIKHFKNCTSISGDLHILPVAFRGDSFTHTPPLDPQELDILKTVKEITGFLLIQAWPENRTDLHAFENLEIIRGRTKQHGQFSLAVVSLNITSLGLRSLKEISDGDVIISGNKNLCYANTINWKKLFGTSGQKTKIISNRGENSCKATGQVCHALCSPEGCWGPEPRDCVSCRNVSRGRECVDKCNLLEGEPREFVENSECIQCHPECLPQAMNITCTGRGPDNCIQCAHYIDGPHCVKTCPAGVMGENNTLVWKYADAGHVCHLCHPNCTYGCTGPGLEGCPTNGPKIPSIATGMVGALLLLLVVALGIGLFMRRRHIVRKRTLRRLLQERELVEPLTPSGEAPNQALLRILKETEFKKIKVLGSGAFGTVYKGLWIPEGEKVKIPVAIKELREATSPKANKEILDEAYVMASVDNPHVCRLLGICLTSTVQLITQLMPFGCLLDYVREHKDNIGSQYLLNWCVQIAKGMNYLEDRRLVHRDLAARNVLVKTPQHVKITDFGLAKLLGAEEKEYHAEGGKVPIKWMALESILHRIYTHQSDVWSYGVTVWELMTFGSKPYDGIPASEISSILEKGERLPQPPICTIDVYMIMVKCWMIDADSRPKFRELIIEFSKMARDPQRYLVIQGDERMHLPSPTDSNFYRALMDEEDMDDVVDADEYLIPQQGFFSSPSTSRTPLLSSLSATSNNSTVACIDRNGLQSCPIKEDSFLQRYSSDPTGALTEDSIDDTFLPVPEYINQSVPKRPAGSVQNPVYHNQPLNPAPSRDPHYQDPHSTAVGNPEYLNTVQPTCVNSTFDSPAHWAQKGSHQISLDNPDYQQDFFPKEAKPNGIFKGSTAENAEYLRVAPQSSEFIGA

[5] = molecular target: Serine/threonine-protein kinase pim-3 (Homo sapiens) (UniProt Q86V86); assay: Selectivity interaction (Kinase panel (literature)) EUB0001199aCl PIM3; details: at 1 µM
[6] = molecular target: Insulin-like growth factor 1 receptor (Homo sapiens, UniProt P08069); assay: Selectivity interaction (Kinase panel (Z-LYTE Assay)) EUB0001632a IGF1R; details: at 10 µM
[7] = molecular target: T1, Dual specificity mitogen-activated protein kinase kinase 6 (Homo sapiens) (UniProt P52564); assay: Selectivity interaction (KinomeScan (DiscoverX)) EUB0000695a MAP2K6; details: at 100 nM
T1 sequence (whole entry): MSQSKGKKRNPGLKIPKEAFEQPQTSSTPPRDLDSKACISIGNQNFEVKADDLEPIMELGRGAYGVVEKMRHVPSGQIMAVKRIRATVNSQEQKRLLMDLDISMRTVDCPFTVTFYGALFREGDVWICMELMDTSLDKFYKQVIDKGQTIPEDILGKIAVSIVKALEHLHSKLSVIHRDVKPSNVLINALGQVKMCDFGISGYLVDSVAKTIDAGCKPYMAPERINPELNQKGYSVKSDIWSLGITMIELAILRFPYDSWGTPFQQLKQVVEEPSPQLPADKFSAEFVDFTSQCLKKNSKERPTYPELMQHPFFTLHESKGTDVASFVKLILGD

[8] = molecular target: Glutamate receptor ionotropic, kainate 1 (Homo sapiens) (UniProt P39086); assay: Selectivity interaction (Eurofins CEREP Diversity Profile (receptors and ion channels)) EUB0000279b GRIK1; details: at 10 µM
[9] = system: Epidermal growth factor receptor (Homo sapiens), P00533 [UNDEFINED MUTATION]; assay: Selectivity interaction (KinomeScan (DiscoverX)) EUB0000092b EGFR; details: at 10 µM
Chain of Epidermal growth factor receptor (Homo sapiens), P00533 [UNDEFINED MUTATION] (P00533 whole entry, looked up, change not shown): as the sequence (P00533 whole entry) above

[10] = molecular target: 5'-AMP-activated protein kinase catalytic subunit alpha-2 (Homo sapiens) (UniProt P54646); assay: Selectivity interaction (KinomeScan (DiscoverX)) EUB0000655a PRKAA2; details: at 10 µM
Chain of 5'-AMP-activated protein kinase catalytic subunit alpha-2 (Homo sapiens) (P54646 whole entry, looked up): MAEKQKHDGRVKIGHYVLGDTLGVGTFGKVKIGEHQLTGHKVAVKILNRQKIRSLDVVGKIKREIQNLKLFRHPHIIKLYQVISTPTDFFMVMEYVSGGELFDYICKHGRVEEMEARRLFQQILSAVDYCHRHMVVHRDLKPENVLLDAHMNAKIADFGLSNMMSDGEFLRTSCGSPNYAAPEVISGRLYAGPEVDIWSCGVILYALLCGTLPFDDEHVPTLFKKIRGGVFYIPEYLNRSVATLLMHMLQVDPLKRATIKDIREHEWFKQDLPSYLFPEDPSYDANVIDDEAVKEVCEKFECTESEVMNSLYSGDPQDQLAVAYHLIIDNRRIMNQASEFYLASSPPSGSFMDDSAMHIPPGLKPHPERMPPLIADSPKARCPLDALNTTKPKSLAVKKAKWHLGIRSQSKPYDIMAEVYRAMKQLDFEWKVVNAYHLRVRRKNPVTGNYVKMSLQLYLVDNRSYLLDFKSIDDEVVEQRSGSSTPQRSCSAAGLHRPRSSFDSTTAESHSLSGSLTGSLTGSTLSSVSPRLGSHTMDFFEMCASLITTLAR

[11] = molecular target: Fibroblast growth factor receptor 4 (Homo sapiens, UniProt P22455); assay: Selectivity interaction (KinomeScan (DiscoverX)) EUB0000655a FGFR4; details: at 10 µM
Chain of Fibroblast growth factor receptor 4 (P22455 22-802 limits assumed): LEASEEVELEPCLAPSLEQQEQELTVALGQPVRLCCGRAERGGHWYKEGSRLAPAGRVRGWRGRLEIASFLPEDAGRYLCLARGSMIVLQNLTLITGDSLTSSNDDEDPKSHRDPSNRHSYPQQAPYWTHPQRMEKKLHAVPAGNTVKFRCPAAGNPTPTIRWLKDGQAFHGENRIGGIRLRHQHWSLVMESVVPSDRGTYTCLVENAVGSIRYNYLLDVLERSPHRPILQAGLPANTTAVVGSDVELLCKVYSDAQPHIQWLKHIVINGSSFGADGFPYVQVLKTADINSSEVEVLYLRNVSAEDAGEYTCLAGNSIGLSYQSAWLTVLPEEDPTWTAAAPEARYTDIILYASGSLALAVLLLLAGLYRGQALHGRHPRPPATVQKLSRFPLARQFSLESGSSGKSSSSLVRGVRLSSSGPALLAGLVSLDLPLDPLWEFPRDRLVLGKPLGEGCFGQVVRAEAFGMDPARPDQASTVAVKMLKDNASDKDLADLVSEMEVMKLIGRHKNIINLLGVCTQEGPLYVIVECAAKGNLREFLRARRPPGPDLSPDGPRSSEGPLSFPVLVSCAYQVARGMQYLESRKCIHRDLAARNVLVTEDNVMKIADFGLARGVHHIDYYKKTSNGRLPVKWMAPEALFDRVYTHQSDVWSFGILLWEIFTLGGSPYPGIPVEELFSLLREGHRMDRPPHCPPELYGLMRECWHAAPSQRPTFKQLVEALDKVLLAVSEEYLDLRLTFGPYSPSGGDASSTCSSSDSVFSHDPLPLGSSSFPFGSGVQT

[12] = molecular target: Tyrosine-protein kinase JAK2 (Homo sapiens, UniProt O60674); assay: Selectivity interaction (KinomeScan (DiscoverX)) EUB0001619a JAK2; details: at 1 µM
[13] = molecular target: T2, Mitogen-activated protein kinase kinase kinase kinase 2 (Homo sapiens) (UniProt Q12851); assay: Selectivity interaction (ActivX KiNativ screen (ex vivo kinase selectivity in human PBMCs)) EUB0001619a MAP4K2; assay type: cell-based; details: PBMC, at 1 µM
T2 sequence (whole entry): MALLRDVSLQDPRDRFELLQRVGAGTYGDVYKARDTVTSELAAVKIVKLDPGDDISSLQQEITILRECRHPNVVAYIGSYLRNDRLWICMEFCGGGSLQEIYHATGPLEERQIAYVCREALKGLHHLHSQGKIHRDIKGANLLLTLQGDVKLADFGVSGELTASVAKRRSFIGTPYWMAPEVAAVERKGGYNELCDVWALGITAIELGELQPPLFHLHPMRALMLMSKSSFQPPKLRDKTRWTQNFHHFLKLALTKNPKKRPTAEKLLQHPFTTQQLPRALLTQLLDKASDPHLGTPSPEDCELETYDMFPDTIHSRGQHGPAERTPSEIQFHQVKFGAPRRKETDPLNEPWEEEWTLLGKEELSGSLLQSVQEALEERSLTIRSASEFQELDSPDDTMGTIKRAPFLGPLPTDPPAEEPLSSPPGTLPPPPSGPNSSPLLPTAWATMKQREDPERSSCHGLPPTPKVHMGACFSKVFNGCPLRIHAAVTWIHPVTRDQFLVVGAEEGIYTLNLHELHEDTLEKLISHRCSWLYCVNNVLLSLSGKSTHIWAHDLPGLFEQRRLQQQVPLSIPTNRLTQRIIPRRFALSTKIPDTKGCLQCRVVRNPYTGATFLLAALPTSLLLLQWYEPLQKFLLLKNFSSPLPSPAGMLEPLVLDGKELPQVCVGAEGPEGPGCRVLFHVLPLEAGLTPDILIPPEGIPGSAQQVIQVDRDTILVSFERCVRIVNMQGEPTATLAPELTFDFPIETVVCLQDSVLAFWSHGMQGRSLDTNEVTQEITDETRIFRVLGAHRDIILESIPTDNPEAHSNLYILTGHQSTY

[14] = molecular target: Serine/threonine-protein kinase NIM1 (Homo sapiens, UniProt Q8IY84); assay: Selectivity interaction (KinomeScan (DiscoverX)) EUB0000618a NIM1K; details: at 10 µM
Chain of Serine/threonine-protein kinase NIM1 (Q8IY84 whole entry): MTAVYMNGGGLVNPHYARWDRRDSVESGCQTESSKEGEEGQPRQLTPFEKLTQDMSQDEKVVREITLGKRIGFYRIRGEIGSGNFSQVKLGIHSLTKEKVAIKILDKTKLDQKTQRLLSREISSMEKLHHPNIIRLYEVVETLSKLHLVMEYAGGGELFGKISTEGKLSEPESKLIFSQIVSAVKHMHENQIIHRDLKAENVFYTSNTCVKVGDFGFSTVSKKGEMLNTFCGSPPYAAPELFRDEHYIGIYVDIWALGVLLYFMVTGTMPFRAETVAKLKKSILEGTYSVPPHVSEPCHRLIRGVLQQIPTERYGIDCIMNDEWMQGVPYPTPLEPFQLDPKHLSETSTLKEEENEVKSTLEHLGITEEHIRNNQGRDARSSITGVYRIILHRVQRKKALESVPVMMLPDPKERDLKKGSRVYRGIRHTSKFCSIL

Chain of Tyrosine-protein kinase HCK (Homo sapiens) (P08631 2-526 limits assumed): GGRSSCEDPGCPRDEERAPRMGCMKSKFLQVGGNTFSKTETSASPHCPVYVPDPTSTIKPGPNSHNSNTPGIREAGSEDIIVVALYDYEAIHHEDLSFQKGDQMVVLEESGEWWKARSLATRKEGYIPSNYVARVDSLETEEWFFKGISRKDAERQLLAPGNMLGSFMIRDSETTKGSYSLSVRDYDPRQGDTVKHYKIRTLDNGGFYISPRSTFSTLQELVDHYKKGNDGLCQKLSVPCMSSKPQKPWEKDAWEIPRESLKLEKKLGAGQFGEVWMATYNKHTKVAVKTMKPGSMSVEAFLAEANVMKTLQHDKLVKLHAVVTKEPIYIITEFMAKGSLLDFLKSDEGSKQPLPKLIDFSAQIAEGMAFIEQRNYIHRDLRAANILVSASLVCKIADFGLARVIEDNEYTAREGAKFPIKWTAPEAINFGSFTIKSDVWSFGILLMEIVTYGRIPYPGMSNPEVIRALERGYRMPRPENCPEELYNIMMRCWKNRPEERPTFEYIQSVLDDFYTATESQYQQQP

Compound: CC(=O)Nc1cccc(-n2c(=O)n(C3CC3)c(=O)c3c(Nc4ccc(I)cc4F)n(C)c(=O)c(C)c32)c1
- % of control [1]: 98%

Compound: Cc1cnc(Nc2ccc(F)cc2Cl)nc1-c1c[nH]c(C(=O)N[C@H](CO)c2cccc(Cl)c2)c1
- % of inhibition [2]: 3%

Compound: COc1cc(Nc2nc(C)cc(-c3cnn4nc(OC)ccc34)n2)cc(C(F)(F)F)c1
- % of control [3]: 85%

Compound: CC[C@@H]1[C@H](F)C(=O)N[C@@H]1COc1nccc2cc(C(N)=O)c(OC)cc12 [ZIMLOVISERTIB]
- % of inhibition [4]: 1.25%

Compound: CN1Cc2nccc(-c3cn(C)nc3-c3ccc(F)cc3)c2C1=O
- % of inhibition [5]: 1%

Compound: Cn1cc(-n2cnc3c(NCc4nc5cc(Cl)c(Cl)cc5[nH]4)nc(N4CCOCC4)nc32)cn1
- % of control [6]: 3.73%

Compound: Cc1cc(F)c(C(=O)Nc2cccc(-c3nncn3C(C)C)n2)cc1-n1cnc(C2CC2)c1
- % of control [7]: 100%

Compound: CC(=O)c1cc(-c2ccccc2OCC2CC2)c2ncccn12
- % of control [8]: 117%

Compound: CCC(=O)N1CCN(c2ccc(-n3c(=O)ccc4cnc5ccc(-c6cnc7ccccc7c6)cc5c43)cc2C(F)(F)F)CC1
- % of control [9]: 84%

Compound: CN(C)CCOc1ccc(-c2nc(-c3ccncc3)c(-c3ccc4c(c3)CC/C4=N\O)[nH]2)cc1
- % of control [10]: 94%
- % of control [11]: 100%

Compound: N#Cc1cccc(-c2c[nH]c3ncnc(N4CCOCC4)c23)c1
- % of control [12]: 71%
- % of inhibition [13]: 31%

Compound: O[C@H]1CC[C@H](Nc2ncc3nc(Nc4c(F)cc(F)cc4F)n([C@H]4CCOC4)c3n2)CC1
- % of control [14]: 100%
